Results on nine compounds are retold here after article PMC2798733 (Bioorganic & medicinal chemistry, 2008).

The target of test [1] is T1, rat TRPV1 (Rattus norvegicus, UniProt O35433). The test is described as follows: biochemical. The format is binding.
Test [2] concerns the target T1, rat TRPV1. The settings on record: for decrease in agonism on replacing or removing the 3-methoxy group of compound 1: comparator not given.
The test system of test [3] is transient receptor potential vanilloid 1 (TRPV1) channel. The settings on record: cited from earlier work.
The next test concerns TRPV1. The settings on record: cited from earlier work.
The conditions of test [4]: cited from earlier work.

Each structure is given as a SMILES string. pKi: −log10 of the molar value.

T1 sequence (O35433 whole entry): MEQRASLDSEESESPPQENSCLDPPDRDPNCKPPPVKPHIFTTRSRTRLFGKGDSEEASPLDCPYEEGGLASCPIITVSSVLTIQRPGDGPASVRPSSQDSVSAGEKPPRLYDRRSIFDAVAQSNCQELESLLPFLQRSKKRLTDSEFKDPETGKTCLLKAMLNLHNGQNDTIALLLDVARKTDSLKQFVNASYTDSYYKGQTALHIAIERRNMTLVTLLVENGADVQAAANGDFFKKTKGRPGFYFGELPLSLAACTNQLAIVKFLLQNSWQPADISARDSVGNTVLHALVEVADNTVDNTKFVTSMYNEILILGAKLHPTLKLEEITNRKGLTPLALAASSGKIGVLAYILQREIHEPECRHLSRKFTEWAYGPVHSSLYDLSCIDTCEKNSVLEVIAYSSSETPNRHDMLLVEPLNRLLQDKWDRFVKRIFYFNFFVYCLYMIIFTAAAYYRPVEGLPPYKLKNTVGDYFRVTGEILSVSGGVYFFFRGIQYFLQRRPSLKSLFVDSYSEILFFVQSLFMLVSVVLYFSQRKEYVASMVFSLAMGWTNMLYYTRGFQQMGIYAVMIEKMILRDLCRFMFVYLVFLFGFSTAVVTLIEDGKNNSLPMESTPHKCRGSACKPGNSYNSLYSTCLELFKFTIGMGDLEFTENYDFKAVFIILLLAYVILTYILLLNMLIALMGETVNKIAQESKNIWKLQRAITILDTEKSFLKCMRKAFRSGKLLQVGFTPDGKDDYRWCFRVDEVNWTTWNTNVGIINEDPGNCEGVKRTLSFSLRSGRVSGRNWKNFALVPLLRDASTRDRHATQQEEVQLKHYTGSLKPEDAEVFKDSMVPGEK

Turning to `C=C(C)[C@@]12C[C@@H](C)[C@@]34OC(Cc5ccccc5)(O[C@@H]1[C@@H]3C=C(COC(=O)Cc1ccc(NS(C)(=O)=O)c(OC)c1)C[C@]1(O)C(=O)C(C)=C[C@@H]41)O2` [Compound 1, 3-Methoxy-4-(methylsulfonylamino) analogue], the “reduction in binding affinity compared to RTX” value at rat TRPV1 [1] amounted to 5 fold. Moreover, the “enhancement of functional activity (agonism) compared to RTX” value on rat TRPV1 [2] is 2.5 fold.

As to `C=C(C)[C@@]12C[C@@H](C)[C@@]34OC(Cc5ccccc5)(O[C@@H]1[C@@H]3C=C(COC(=O)Cc1ccc(NS(C)(=O)=O)c(F)c1)C[C@]1(O)C(=O)C(C)=C[C@@H]41)O2` [Compound 2, 3-Fluoro-4-(methylsulfonylamino) analogue], at rat TRPV1 [2], the “decrease in agonism on replacing or removing the 3-methoxy group of compound 1” value was 9 fold. With `C=C(C)[C@@]12C[C@@H](C)[C@@]34OC(Cc5ccccc5)(O[C@@H]1[C@@H]3C=C(COC(=O)Cc1ccc(NS(C)(=O)=O)cc1)C[C@]1(O)C(=O)C(C)=C[C@@H]41)O2` [Compound 3, 4-(Methylsulfonylamino) analogue], at rat TRPV1 [2], the “decrease in agonism on replacing or removing the 3-methoxy group of compound 1” value was 7 fold.

In turn, `C=C(C)[C@@]12C[C@@H](C)[C@@]34OC(Cc5ccccc5)(O[C@@H]1[C@@H]3C=C(COC(=O)Cc1ccccc1F)C[C@]1(O)C(=O)C(C)=C[C@@H]41)O2` [Compound 4, 2-Fluoro analogue] had a pKi on rat TRPV1 [1] of 9.14.

Consider `C=C(C)[C@@]12C[C@@H](C)[C@@]34OC(Cc5ccccc5)(O[C@@H]1[C@@H]3C=C(COC(=O)Cc1ccc(F)cc1F)C[C@]1(O)C(=O)C(C)=C[C@@H]41)O2` [Compound 8, 2,4-Difluoro analogue], for which the “relative agonism compared to RTX” value at rat TRPV1 [2] (compared to RTX) stood at 0.15.

Regarding `C=C(C)[C@@]12C[C@@H](C)[C@@]34OC(Cc5ccccc5)(O[C@@H]1[C@@H]3C=C(COC(=O)Cc1cc(F)ccc1F)C[C@]1(O)C(=O)C(C)=C[C@@H]41)O2` [Compound 9, 2,5-Difluoro analogue], the “relative affinity compared to RTX” value on rat TRPV1 [1] (compared to RTX) is on record as 0.1. `C=C(C)[C@@]12C[C@@H](C)[C@@]34OC(Cc5ccccc5)(O[C@@H]1[C@@H]3C=C(CNC(=O)Cc1ccc(NS(C)(=O)=O)cc1)C[C@]1(O)C(=O)C(C)=C[C@@H]41)O2` [Compound 14, Amide analogue]: the “drop in binding, amide versus ester compound 3” value at rat TRPV1 [1] (compared to compound 3) worked out at 50 fold. In addition, on rat TRPV1 [2] (compared to compound 3), the “drop in agonism, amide versus ester compound 3” value is given as 210 fold. On to `C=C(C)[C@]12C[C@@H](C)[C@@]34O[C@](Cc5ccccc5)(O[C@@H]1[C@@H]3C=C(COC(=O)Cc1ccc(O)c(OC)c1)C[C@]1(O)C(=O)C(C)=C[C@@H]41)O2` [RTX, Resiniferatoxin], for which the “greater potency than the prototypic agonist capsaicin” value in test [3] is given as 10^3- to 10^4 fold.

With `C=C(C)[C@]12C[C@@H](C)[C@@]34O[C@](Cc5ccccc5)(O[C@@H]1[C@@H]3C=C(COC(=O)Cc1ccc(O)cc1)C[C@]1(O)C(=O)C(C)=C[C@@H]41)O2` [tinyatoxin], the “decrease in binding potency compared to RTX” value in the test with TRPV1 was 3 fold. In test [4], the “loss of biological potency compared to RTX” value is listed as 6 fold.
